From patent US20230346883A1, “COMPOSITIONS FOR AND METHODS OF TREATMENT WITH MUTANT A1 ADENOSINE RECEPTOR PLASMID cDNAs” (Endacea, Inc., priority 2022, published 2023)

Test system: PC3 Tumors (Human Prostate Carcinoma)
Assay: Treatment of PC3 xenograft tumors in athymic nude mice, tumor volume
Type: in vivo
Details: dosed twice/week
Experimental: • 1. Animals: • 46 Athymic nude mice (ENVIGO, male, 5-6 weeks old, R #: 4269, PO #: 236172) were used in this study. All mice were ear tagged for identification purposes. • 2. Animal Husbandry: • Upon arrival, animals were examined to ensure that they were healthy. The animals were housed in autoclaved solid floor polycarbonate cages. Housing and sanitation were performed. All animal handling was performed in a laminar flow hood. Animals were housed in filter-topped cages within a HEPA filtered clean room. • 3. Cell Culture and Implantation: • PC3 cell line was obtained from American Type Culture Collection (Manassas, VA). The cells were cultured in 75 cm^2 flask containing Eagle's Minimum Essential Medium supplemented with 10% fetal bovine calf serum (FBS) and incubated at 37° C. in humidified atmosphere of 5% CO2. As cells became 80% confluent, cultures were expanded to 150 cm^2 flasks, and expanded further until sufficient cells were available for injection. • Cancer cells were subcutaneously injected into right flank, 10 million cells/each mouse for PC3 cells. • 4. Assignment to Treatment Groups: • The animals were ear tagged for identification purposes. The animals were assigned to 4 study groups with 10 mice in each group based upon tumor volume. • 5. The mice were dosed twice a week for 6 weeks.
The Paclitaxel was stored at ambient temperature. Lipid nanoparticle (LNP) suspensions were stored at 4° C. Unopened vials were maintained in their original container at 4° C. until ready for use. 50 μl of LNP treatment was drawn via large bore needle (16G needle) from vial. All LNP treatments were allowed to reach room temperature by standing at ambient temperature. There was no heating. The large bore needle was replaced with a small-bore needle (25G) for tumor injection. • 6. Tumor Monitoring: • The xenograft tumors were measured three times a week with a digital caliper. • Tumor volumes were calculated using the formula:
Tumor Volume=length×width×width×½ • 7. Statistical Analysis: • Tumor sizes and body weights were analyzed using Student's t-test. P values <0.05 were considered as statistically significant.

Q: With `CC(=O)O[C@H]1C(=O)[C@@]2(C)[C@H]([C@H](OC(=O)c3ccccc3)[C@]3(O)C[C@H](OC(=O)[C@H](O)[C@@H](NC(=O)c4ccccc4)c4ccccc4)C(C)=C1C3(C)C)[C@]1(OC(C)=O)CO[C@@H]1C[C@@H]2O` [Paclitaxel] as the compound, how does the “Average Tumor Volume (Mean)” value (therapy day 0) read?
A: Its value is 108.0 Mm^3.

Q: And the “Average Tumor Volume (Mean)” value (therapy day 3)?
A: The value was 105.7 Mm^3.

Q: And the “Average Tumor Volume (Mean)” value (therapy day 5)?
A: The value was 111.7 Mm^3.

Q: And the “Average Tumor Volume (Mean)” value (therapy day 7)?
A: The value was 129.6 Mm^3.

Q: And the “Average Tumor Volume (Mean)” value (therapy day 10)?
A: Its value is 108.4 Mm^3.

Q: What about the “Average Tumor Volume (Mean)” value (therapy day 12) of the same compound?
A: Its value is 98.1 Mm^3.

Q: And the “Average Tumor Volume (Mean)” value (therapy day 14)?
A: The value was 84.2 Mm^3.

Q: What about the “Average Tumor Volume (Mean)” value (therapy day 17) of the same compound?
A: Its value is 66.6 Mm^3.

Q: And the “Average Tumor Volume (Mean)” value (therapy day 19)?
A: Its value is 61.8 Mm^3.

Q: What about the “Average Tumor Volume (Mean)” value (therapy day 21) of the same compound?
A: The value was 56.6 Mm^3.

Q: And the “Average Tumor Volume (Mean)” value (therapy day 24)?
A: The value was 48.7 Mm^3.

Q: What about the “Average Tumor Volume (Mean)” value (therapy day 26) of the same compound?
A: Its value is 34.6 Mm^3.

Q: What about the “Average Tumor Volume (Mean)” value (therapy day 28) of the same compound?
A: The value was 31.1 Mm^3.

Q: What about the “Average Tumor Volume (Mean)” value (therapy day 31) of the same compound?
A: Its value is 26.6 Mm^3.

Q: And the “Average Tumor Volume (Mean)” value (therapy day 35)?
A: The value was 25.3 Mm^3.

Q: And the “Average Tumor Volume (Mean)” value (therapy day 38)?
A: Its value is 24.4 Mm^3.

Q: And the “Average Tumor Volume (Mean)” value (therapy day 40)?
A: Its value is 24.2 Mm^3.

Q: What about the “Average Tumor Volume (Mean)” value (therapy day 42) of the same compound?
A: Its value is 27.2 Mm^3.

Q: What about the “Average Tumor Volume (Mean)” value (therapy day 45) of the same compound?
A: Its value is 17.8 Mm^3.
